Patent publication US20130090360A1 (priority 2010, published 2013)
Read-outs that look alike come from different tables or passages of the source.

Key:
Pyricuaria oryzae = assay type: in vivo, Pyricuaria oryzae on rice plants (variety Tainong 67); conditions: field, natural infection
Pyricularia oryzae = assay type: in vivo, Pyricularia oryzae on rice plants (variety Tainong 67); conditions: field, natural infection

## Fc1ccc([C@]2(Cn3cncn3)O[C@H]2c2ccccc2Cl)cc1 (racemic) [Epoxiconazole (EPX), epoxiconazole]
Pyricuaria oryzae; application rate 25 g ai/ha
  Efficacy % 22 days after first application: 1.2%
Pyricuaria oryzae; application rate 50 g ai/ha
  Efficacy % 22 days after first application: 0.0%
Pyricuaria oryzae; application rate 75 g ai/ha
  Efficacy % 22 days after first application: 5.6%
Pyricularia oryzae; application rate 25 g ai/ha
  Efficacy % 15 days after first application: 17.7%
Pyricularia oryzae; application rate 50 g ai/ha
  Efficacy % 15 days after first application: 24.1%
Pyricularia oryzae; application rate 75 g ai/ha
  Efficacy % 15 days after first application: 35.1%

## Cc1cccc2sc3nncn3c12 [Tricyclazol, tricyclazole]
Pyricuaria oryzae; application rate 100 g ai/ha
  Efficacy % 22 days after first application: 5.6%
Pyricuaria oryzae; application rate 200 g ai/ha
  Efficacy % 22 days after first application: 0.0%
Pyricularia oryzae; application rate 100 g ai/ha
  Efficacy % 15 days after first application: 34.9%
